This is an account of results in patent US10647669B2, “Composition containing lutein/lutein ester and applications thereof” (priority 2016, dated 2020).

The nature of this series: Effect of pH on the stability of lutein/lutein ester (absorbance of acetone aqueous solutions). Format: physicochemical. The note with it: for Absorbance value: acetone aqueous solution; for Retention: after placing for 96 h at pH 1.5; for Change of absorbance values: under strong acid conditions. As to the method:
Effect of pH on the Stability of Lutein/Lutein Ester The acetone aqueous solutions of lutein and lutein ester with pH 1.5 and pH 3 were prepared respectively, and the absorbance values at different time period are shown as follows: […]

Take `CC1=C[C@H](O)CC(C)(C)[C@H]1/C=C/C(C)=C/C=C/C(C)=C/C=C/C=C(C)/C=C/C=C(C)/C=C/C1=C(C)C[C@@H](O)CC1(C)C` [Lutein, lutein]: the Retention came to 17.80% and the “Change of absorbance values” is given as “decrease significantly”. Also, where the note is “pH 1.5, 0 h”, the Absorbance value was 0.843. The compound further came in with an Absorbance value (pH 1.5, 12 h) of 0.559. In addition, the Absorbance value (pH 1.5, 24 h) is listed as 0.452. The compound further returned an Absorbance value (pH 1.5, 36 h) of 0.368. Besides, the Absorbance value (pH 1.5, 48 h) is 0.267. The compound also returned an Absorbance value (pH 1.5, 96 h) of 0.151. Moreover, the Absorbance value (pH 3.0, 0 h) is given as 0.845. The Absorbance value (pH 3.0, 12 h) came to 0.566. Moreover, the Absorbance value (pH 3.0, 24 h) turned out to be 0.495. Where the note is “pH 3.0, 36 h”, this compound yielded an Absorbance value of 0.428. For the setting “pH 3.0, 48 h”, this compound registered an Absorbance value of 0.341. The same compound yielded an Absorbance value (pH 3.0, 96 h) of 0.268.
As to lutein ester, the Retention turned out to be 18.36% and the “Change of absorbance values” is “decrease significantly”. In addition, the Absorbance value (pH 1.5, 0 h) stood at 0.844. In addition, the Absorbance value (pH 1.5, 12 h) was 0.588. Under “pH 1.5, 24 h”, this compound displayed an Absorbance value of 0.466. Moreover, the Absorbance value (pH 1.5, 36 h) came out at 0.377. For the setting “pH 1.5, 48 h”, this compound displayed an Absorbance value of 0.259. Under “pH 1.5, 96 h”, this compound came in with an Absorbance value of 0.155. Also, the Absorbance value (pH 3.0, 0 h) was found to be 0.837. The compound also gave an Absorbance value (pH 3.0, 12 h) of 0.597. Moreover, the Absorbance value (pH 3.0, 24 h) is 0.502. Also, for the setting “pH 3.0, 36 h”, the Absorbance value came out at 0.439. Where the note is “pH 3.0, 48 h”, this compound gave an Absorbance value of 0.356. Besides, under “pH 3.0, 96 h”, the Absorbance value is 0.274.
